Assay results reported in PubChem BioAssay (NCI).
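All cell lines were grown in 96-well plates and treated with compound for 48 hours. GI50: concentration for 50% inhibition of growth. TGI marks complete inhibition of growth.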

Columns and labels:
Assay in all cases: DTP human tumour cell line panel, 48 h
K-562 leukemia = test system: K-562 leukemia
SNB-19 CNS = test system: SNB-19 CNS
IGROV1 ovarian = test system: IGROV1 ovarian
SF-539 CNS = test system: SF-539 CNS
EKVX NSCLC = test system: EKVX NSCLC
MDA-MB-468 breast = test system: MDA-MB-468 breast
HCT-15 colon = test system: HCT-15 colon
HCT-116 colon = test system: HCT-116 colon
SK-MEL-28 melanoma = test system: SK-MEL-28 melanoma
HL-60(TB) leukemia = test system: HL-60(TB) leukemia
HT29 colon = test system: HT29 colon
786-0 renal = test system: 786-0 renal
CAKI-1 renal = test system: CAKI-1 renal
BT-549 breast = test system: BT-549 breast
UO-31 renal = test system: UO-31 renal
TK-10 renal = test system: TK-10 renal
SF-295 CNS = test system: SF-295 CNS
RXF 393 renal = test system: RXF 393 renal
SK-MEL-2 melanoma = test system: SK-MEL-2 melanoma
A498 renal = test system: A498 renal
CCRF-CEM leukemia = test system: CCRF-CEM leukemia
OVCAR-4 ovarian = test system: OVCAR-4 ovarian
MOLT-4 leukemia = test system: MOLT-4 leukemia
U251 CNS = test system: U251 CNS
SNB-75 CNS = test system: SNB-75 CNS
RPMI-8226 leukemia = test system: RPMI-8226 leukemia
HCC-2998 colon = test system: HCC-2998 colon
UACC-62 melanoma = test system: UACC-62 melanoma
COLO 205 colon = test system: COLO 205 colon

COc1ccc(-c2ccnc(SCc3cc4cc(Cl)ccc4[nH]c3=O)n2)cc1
GI50 (K-562 leukemia): 31.2 µM
TGI (K-562 leukemia): > 100 µM
GI50 (SNB-19 CNS): 3.7 µM
TGI (SNB-19 CNS): 28.6 µM
GI50 (IGROV1 ovarian): 27.1 µM
TGI (IGROV1 ovarian): > 100 µM
GI50 (SF-539 CNS): 3.16 µM
TGI (SF-539 CNS): 14.8 µM
GI50 (EKVX NSCLC): 12.2 µM
TGI (EKVX NSCLC): 64.9 µM
GI50 (MDA-MB-468 breast): 5.59 µM
TGI (MDA-MB-468 breast): 35.9 µM
GI50 (HCT-15 colon): 29 µM
TGI (HCT-15 colon): > 100 µM
GI50 (HCT-116 colon): 14 µM
TGI (HCT-116 colon): > 100 µM
GI50 (SK-MEL-28 melanoma): 7.39 µM
TGI (SK-MEL-28 melanoma): 31.6 µM
GI50 (HL-60(TB) leukemia): > 100 µM
TGI (HL-60(TB) leukemia): > 100 µM
GI50 (HT29 colon): 53.6 µM
TGI (HT29 colon): > 100 µM
GI50 (786-0 renal): 15.1 µM
TGI (786-0 renal): 36.5 µM
GI50 (CAKI-1 renal): 7.7 µM
TGI (CAKI-1 renal): 27.1 µM
GI50 (BT-549 breast): 6.21 µM
TGI (BT-549 breast): 33.2 µM
GI50 (UO-31 renal): 14.5 µM
TGI (UO-31 renal): 54.4 µM
GI50 (TK-10 renal): 26.3 µM
TGI (TK-10 renal): 90 µM
GI50 (SF-295 CNS): 5.49 µM
TGI (SF-295 CNS): 26.8 µM
GI50 (RXF 393 renal): 2.27 µM
TGI (RXF 393 renal): 8.31 µM
GI50 (SK-MEL-2 melanoma): 14.6 µM
TGI (SK-MEL-2 melanoma): 39.2 µM
GI50 (A498 renal): 17.5 µM
TGI (A498 renal): 46.2 µM
GI50 (CCRF-CEM leukemia): 16 µM
TGI (CCRF-CEM leukemia): > 100 µM
GI50 (OVCAR-4 ovarian): 3.85 µM
TGI (OVCAR-4 ovarian): 24.5 µM
GI50 (MOLT-4 leukemia): 38.6 µM
TGI (MOLT-4 leukemia): > 100 µM
GI50 (U251 CNS): 13.5 µM
TGI (U251 CNS): 46.6 µM
GI50 (SNB-75 CNS): 1.69 µM
TGI (SNB-75 CNS): 3.98 µM
GI50 (RPMI-8226 leukemia): 16.8 µM
TGI (RPMI-8226 leukemia): > 100 µM
GI50 (HCC-2998 colon): 27.6 µM
TGI (HCC-2998 colon): > 100 µM
GI50 (UACC-62 melanoma): 14.8 µM
TGI (UACC-62 melanoma): 53.2 µM
GI50 (COLO 205 colon): 44.8 µM
TGI (COLO 205 colon): > 100 µM
